Values after ≈ are worked out from the molar mass of the structure shown. Like-named read-outs stand apart in the source and are kept apart here.
Assays:
[1] = HPLC method B
Description: In method B, the samples are analyzed with a normal reverse phase column, there is virtually no difference in the retention times of the samples.

[2] = solid form, cited from earlier work
water solubility = assay type: physicochemical; conditions: in water, organic solvent free
pH of solution = assay type: physicochemical; conditions: in solution
[3] = speciation calculation using experimentally determined pKas (FIG. 8); assay type: physicochemical; conditions: pH 2.7, concentration 0.5M
Description: FIG. 8 illustrates the speciation calculation of the dipeptide H-D-iGlu-D-Trp-OH and its salt using experimentally determined pKas of the acid and amine groups. LH2 is the diacid form of the peptide H-D-iGlu-D-Trp-OH, LH is the mono carboxylic acid salt of H-D-iGlu-D-Trp-OH. An example of such is the mono ammonium salt. L refers to the diacid salt form and one such example is the disodium salt of the peptide H-D-iGlu-D-Trp-OH.
The pKas of the acid and amine groups of H-D-iGlu-D-Trp-OH are experimentally determined. In FIG. 8, LH2 is thymodepressin, LH is the monocarboxylic acid salt, L is the dicarboxylic acid salt, and LH3 is the acid addition salt of thymodepressin. The X axis provides the pH of the solution. The Y axis provides the % formation relative to L (the default terminology of the software) and reports the molar fraction of the species present at a particular pH. The concentration of 0.5M is used to reflect the equivalency of 1 gm of thymodepressin in 6 ml water during isolation purposes. […] For this reason, thymodepressin precipitates at pH 2.7 and can be filtered. The mother liquor can be concentrated to obtain a second crop of thymodepressin. The plot confirms the theoretical prediction that the diacid form of H-D-iGlu-D-Trp-OH predominates at pH of about 2.5 to about 3.0, which is the pH for the isolation of the diacid from water as a precipitate. […]

Compound: D-isoglutamyl-D-tryptophan, mono ammonium salt (1:1)
- purity at 254 nm after 2 years of storage [1]: 99.8%

Compound: D-isoglutamyl-D-tryptophan disodium salt
- hygroscopicity (in words) ([2]; listed as D-isoglutamyl-D-tryptophan disodium salt): hygroscopic
- hygroscopicity (in words) ([2]; disodium salt): extremely hygroscopic

Compound: N[C@H](CCC(=O)N[C@H](Cc1c[nH]c2ccccc12)C(=O)O)C(=O)O [thymodepressin, D-isoglutamyl-D-tryptophan]
- water solubility (water solubility; listed as H-D-iGlu-D-Trp-OH): < 23 mg per mL
- water solubility (water solubility; listed as crystalline thymodepressin): about 20 mg per mL
- solubility (water solubility; water): ~23 mg/mL (≈ 69 mM)
- pH of a solution (pH of solution): about 3
- molar fraction present as dicarboxylic acid form (LH2) [3]: about 75%
